row,Structure (SMILES),melting point
1,"CCC(O)(CC)c1ccc(-c2cc3c(N(CCOC)CCOC)ncnc3[nH]2)cc1 [Example 32, 3-(4-{4-[Bis-(2-methoxy-ethyl)-amino]-7H-pyrrolo[2,3-d]pyrimidin-6-yl}-phenyl)-pentan-3-ol]",83 to 85 °C
2,"CNC(=O)c1ccc(-c2cc3c(NC)ncnc3[nH]2)cc1 [Example 21, N-Methyl-4-(4-methylamino-7H-pyrrolo[2,3-d]pyrimidin-6-yl)-benzamide]",> 300 °C
3,"CN(C)CCNc1ncnc2[nH]c(-c3ccc(C(=O)N4CCN(C)CC4)cc3)cc12 [Example 22, {4-[4-(2-Dimethylamino-ethylamino)-7H-pyrrolo[2,3-d]pyrimidin-6-yl]-phenyl}-(4-methyl-piperazin-1-yl)-methanone]",268 to 270 °C
4,"CN1CCN(C(=O)c2ccc(-c3cc4c(N5CCN(C)CC5)ncnc4[nH]3)cc2)CC1 [Example 8, (4-Methyl-piperazin-1-yl)-{4-[4-(4-methyl-piperazin-1-yl)-7H-pyrrolo[2,3-d]pyrimidin-6-yl]-phenyl}-methanone]",243 to 245 °C
5,"CCCCOCc1ccc(-c2cc3c(N(C)C)ncnc3[nH]2)cc1 [Example 26, [6-(4-Butoxymethyl-phenyl)-7H-pyrrolo[2,3-d]pyrimidin-4-yl]-dimethyl-amine]",186 to 188 °C
6,CCC(O)(CC)c1ccc(-c2cc3c(NCCCN4CCOCC4)ncnc3[nH]2)cc1 [Example 30],175 to 177 °C
7,"COCCN(CCOC)c1ncnc2[nH]c(-c3ccc(C(C)(C)O)cc3)cc12 [Example 31, 2-(4-{4-[Bis-(2-methoxy-ethyl)-amino]-7H-pyrrolo[2,3-d]pyrimidin-6-yl}-phenyl)-propan-2-ol]",165 to 167 °C
8,"CCCN(C)c1ncnc2[nH]c(-c3ccc(CN4CCN(C)CC4)cc3)cc12 [Example 1, methyl-{6-[4-(4-methyl-piperazin-1-ylmethyl)phenyl]-7H-pyrrolo[2,3-d]pyrimidin-4-yl}-propylamine]",220 to 221 °C

# — patent publication US7625894B2, “Pyrrolo[2,3-d]Pyrimidines as Protein Tyrosine Kinase Inhibitors” (Novartis AG, priority 2004, dated 2009)
